pIC50: −log10 of the molar value. Active and inactive are the calls of the source. The calls are words filed in the database; no cut-off is given here.

The test system of one data set is COLO 205. Nature of the data set: Antiproliferative activity against human COLO 205 cells measured after 72 hrs by sulforhodamine B assay. The class given is functional, cell-based. To be noted: COLO 205, 72 h. On the technique in general: The SRB assay estimates cell density from bound dye.
The subject of another data set is SW480. Nature of the data set: Synergistic antiproliferative activity against human SW480 cells assessed as combination index at 20 uM after 72 hrs in presence of 10 uM AKT inhibitor MK2206 by Chou-Talalay method. In kind it is functional.
Data set [1] relates to HT-29. Nature of the data set: Antitumor activity against human HT-29 cells xenografted in BALB/c nude mouse assessed as tumor growth inhibition at 100 mg/kg/day, ip measured every 3 days in presence of 50 mg/kg AKT inhibitor MK2206 by electronic caliper method. The conditions noted are these: HT-29, ip, 72 h, time 3 day, read-out: TGI. In kind it is functional. (In general: Xenograft models place foreign cells or tissue in a host animal.)

Data set [2] relates to COLO-678. Nature of the data set: Antiproliferative activity against human COLO 678 cells measured after 72 hrs by sulforhodamine B assay. The class given is functional, cell-based. To be noted: COLO-678, 72 h.
The subject of data set [3] is HT-29. As to the kind of experiment: Induction of cell cycle arrest in human HT29 cells assessed as accumulation at G0/G1 phase at 20 uM after 24 hrs by PI staining based flow cytometry analysis. The class given is functional. (In general: Flow cytometry measures light scatter and fluorescence of single cells or particles in a stream.)
Data set [4] in a line: Toxicity in BALB/c nude mouse xenografted with human HT-29 cells assessed as effect on body weight at 100 mg/kg/day, ip measured every 3 day by electronic caliper method. To be noted: in vivo, 72 h. The class given is organism-based.
The nature of data set [5]: Tmax in BALB/c mouse at 50 mg/kg, ip. In kind it is ADME, organism-based. To be noted: in vivo.
A further data set concerns HCT-8. As to the kind of experiment: Antiproliferative activity against human HCT8 cells measured after 72 hrs by sulforhodamine B assay. In kind it is functional, cell-based. To be noted: HCT-8, 72 h.
Data set [6] relates to COLO-678. As to the kind of experiment: Additive antiproliferative activity against human COLO-678 cells assessed as combination index at 10 uM after 72 hrs in presence of 2.5 uM AKT inhibitor MK2206 by Chou-Talalay method. The class given is functional.
Data set [7] concerns COLO-678. Nature of the data set: Synergistic antiproliferative activity against human COLO-678 cells assessed as combination index at 30 uM after 72 hrs in presence of 7.5 uM AKT inhibitor MK2206 by Chou-Talalay method. The class given is functional.
Another data set has as its system SW-620. As to the kind of experiment: Antiproliferative activity against human SW620 cells measured after 72 hrs by sulforhodamine B assay. The class given is functional, cell-based. The conditions noted are these: SW-620, 72 h.
Data set [8] has as its system HT-29. As to the kind of experiment: Induction of apoptosis in human HT29 cells assessed as inhibition of AKT phosphorylation at 20 uM after 48 hrs in presence of 10 uM MK2206 by Western blotting analysis. The class given is functional, cell-based.
The nature of data set [9]: AUC(0 to t) in BALB/c mouse at 10 mg/kg, iv. Also noted: dose 10 mg/kg. The conditions noted are these: in vivo. In kind it is ADME, organism-based.
For data set [10], the system named is HT-29. Nature of the data set: Induction of apoptosis in human HT29 cells assessed as increase in caspase-3 cleavage at 20 uM after 48 hrs in presence of 10 uM AKT inhibitor MK2206 by Western blot analysis. The class given is functional, cell-based.
A further data set deals with WI-38. As to the kind of experiment: Antiproliferative activity against human WI-38 cells measured after 72 hrs by sulforhodamine B assay. The class given is cell-based. To be noted: WI-38, 72 h.
The subject of a further data set is HCT-116. Nature of the data set: Antiproliferative activity against human HCT116 cells measured after 72 hrs by sulforhodamine B assay. In kind it is functional, cell-based. To be noted: HCT-116, 72 h.
Data set [11] can be described thus: Half life in BALB/c mouse at 50 mg/kg, ip. The class given is ADME, organism-based. The conditions noted are these: in vivo.
The subject of data set [12] is COLO-678. Nature of the data set: Additive antiproliferative activity against human COLO-678 cells assessed as combination index at 20 uM after 72 hrs in presence of 5 uM AKT inhibitor MK2206 by Chou-Talalay method. In kind it is functional.
Data set [13] deals with HT-29. Nature of the data set: Upregulation of p21 protein expression in human HT29 cells at 20 uM incubated for 24 hrs in presence of 10 uM AKT inhibitor MK2206 by Western blotting analysis. In kind it is functional, cell-based.
Data set [14] concerns HT-29. As to the kind of experiment: Induction of apoptosis in human HT29 cells at 15 uM after 48 hrs by Annexin-V-FITC/PI staining based flow cytometric analysis. The class given is functional, cell-based.
Data set [15] relates to HT-29. As to the kind of experiment: Induction of apoptosis in human HT29 cells assessed as increase in caspase-3 activity at 20 uM after 24 hrs in presence of 10 uM AKT inhibitor MK2206 by Western blot analysis. The class given is functional, cell-based.
Data set [16] can be described thus: Antiproliferative activity against human SNU878 cells measured after 72 hrs by sulforhodamine B assay. The conditions noted are these: SNU878, 72 h. In kind it is functional, cell-based.

The pIC50 is the IC50 on a negative log10 scale, so that one unit is a factor of ten. A low value points to a large IC50. Usually Tmax stands for the time at which the peak concentration occurs. As a reminder, the AUC(0-t) is the area under the concentration-time curve up to a stated or last time point. High values mean more exposure, low ones less exposure. By half-life is commonly meant the time in which the quantity being followed falls by half. A high value points to slow decline. `CCCCCCCOc1ccc(CCC(CO)(CO)NC(C)=O)c2ccccc12`: the pIC50 in the data set with COLO 205 is 4.74; with COLO-678 [2], 4.68; with HCT-8 it was 4.66; in the data set on SW-620, 4.53; in the data set with WI-38, 4.29; with HCT-116, 4.59. For the same compound, in data set [16], the negative-log IC50 (pIC50) was 5.18. The CI in the data set with SW480 is 0.62; in the data set on COLO-678 [6], 0.87; with COLO-678 [7], 0.43; in the data set on COLO-678 [12] it was 0.89. Further, the inhibition in vivo at 100 mg/kg/day with HT-29 [1] is 47.5%. In addition, the outcome in the data set on HT-29 [3], in the data set on HT-29 [8] and in the data set with HT-29 [14] was inactive. In [4], the Activity entry is on record as “Non-Toxic”. In addition, in data set [5], the Tmax worked out at 0.75 h. The area under the curve AUC(0-t) in data set [9] is 3.06 µg·h/mL. Moreover, the outcome with HT-29 [10], with HT-29 [13] and in the data set on HT-29 [15] was Active. Moreover, in data set [11], the half-life was 3.3 h.

These data come from ChEMBL document CHEMBL4732213, “Discovery of novel ceramide analogs with favorable pharmacokinetic properties and combination with AKT inhibitor against colon cancer” (Eur J Med Chem, 2021).
